# Results as given in patent US20220248744A1, “NICOTINE MATERIALS, METHODS OF MAKING SAME, AND USES THEREOF” (The Research Foundation for the State University of New York, priority 2019, published 2022).
# Test: Thermal analysis (differential scanning calorimetry / melting point): thermodynamic stability
# Format: physicochemical
# Conditions: based on DSC thermal analysis
# Procedure: Differential Scanning calorimetry (DSC). A differential scanning calorimeter, model DSC Q200 (TA Instrument, USA) was used to measure the thermal transitions of the samples. About 10 mg of each synthesized compound was placed into an aluminum pan and sealed. Each sample, except (S)-nicotinium 2,6-Dihydroxybenzoate, was scanned from 0 to 150° C. at 20° C./min under nitrogen flow for at least 2 full cycles. (S)-nicotinium 2,6-Dihydroxybenzoate was scanned from 0 to 175° C. at 20° C./min under nitrogen flow for at least 2 full cycles.
# Melting Point (MP): A Stuart SMP10 melting point apparatus was utilized to measure the melting point of each of the synthesized compounds. 4 replicates were run for each compound. The plateau temperature was set to 100° C. for each of the salts, except (S)-nicotinium D-malate, and then ramped at 2° C./minute. The plateau temperature was set to 80° C. for the (S)-nicotinium D-malate salt and ramped at 2° C./minute.
# Thermal Analysis. […] This was confirmed via differential scanning calorimetry (DSC) by a very broad endotherm 116.4° C. […] This was confirmed by DSC where in the sharp endotherm at 123.5° C. indicated the melting of this (S)-nicotinium L-malate salt. […] This was confirmed via DSC, wherein the sharp endotherm at 95.2° C. The orthorhombic P212121 (S)-nicotinium DL-malate was initially observed as having a broad melting point of 76-78° C. The was confirmed via DSC wherein a melting point of 77.8° C., though with a very broad curve. […] Monoclinic P21 (S)-nicotinium 2,6-dihydroxybenzoate salt had the highest melting observed thus far. The sharp endotherm at 158.5° C. confirmed the observed melting point. Monoclinic P21 (S)-nicotinium 2,5-dihydroxyterephthalate was observed initially as having a tight melting point range of 196-198° C.
row,SMILES,thermodynamic / thermal stability
1,"CN1CCC[C@H]1c1cccnc1.O=C(O)c1cc(O)c(C(=O)O)cc1O [(S)-nicotinium 2,5-dihydroxyterephthalate]",highest observed thermal stability
2,"CN1CCC[C@H]1c1cccnc1.O=C(O)c1c(O)cccc1O [(S)-nicotinium 2,6-dihydroxybenzoate]",highest observed thermal stability
3,CN1CCCC1c1cccnc1.O=C(O)CC(O)C(=O)O [(S)-nicotinium D-malate],thermodynamically less stable than either of the (S)-nicotinium L-malate salts
4,"CN1CCC[C@H]1c1cccnc1.O=C(O)C[C@H](O)C(=O)O [monoclinic P21 (S)-nicotinium L-malate, (S)-nicotinium L-malate]",most thermodynamically favored and stable malate salt
5,CN1CCC[C@H]1c1cccnc1.O=C(O)C[C@H](O)C(=O)O [orthorhombic P212121 (S)-nicotinium L-malate],more thermodynamically stable than the orthorhombic P212121 (S)-nicotinium D-malate

# Same assay, conditions: based on DSC thermal analysis; listed as Monoclinic P21 (S)-nicotinium L-malate
row,SMILES,thermodynamic / thermal stability
1,"CN1CCC[C@H]1c1cccnc1.O=C(O)C[C@H](O)C(=O)O [monoclinic P21 (S)-nicotinium L-malate, (S)-nicotinium L-malate]",thermodynamically more stable than the orthorhombic P212121 (S)-nicotinium L-malate

# Test: not given
# Conditions: UV λ=300 nm, air flow, 1H NMR
row,SMILES,degradation after 24 hours of UV irradiation
1,"O=C(O)c1cc(O)c(C(=O)O)cc1O [2,5-Dihydroxyterepthalic Acid]","no 2,5-dihydroxyterephthalic acid degradation"
2,"CN1CCC[C@H]1c1cccnc1.O=C(O)c1cc(O)c(C(=O)O)cc1O [(S)-nicotinium 2,5-dihydroxyterephthalate]",no degradation
3,"CN1CCC[C@H]1c1cccnc1.O=C(O)c1c(O)cccc1O [(S)-nicotinium 2,6-dihydroxybenzoate]",no degradation
4,CN1CCCC1c1cccnc1.O=C(O)CC(O)C(=O)O [(S)-nicotinium D-malate],no degradation
5,CN1CCCC1c1cccnc1.O.O=C(O)c1cc(=O)[nH]c(=O)[nH]1 [(S)-nicotinium orotate monohydrate],no degradation
6,"CN1CCC[C@H]1c1cccnc1.O=C(O)C[C@H](O)C(=O)O [monoclinic P21 (S)-nicotinium L-malate, (S)-nicotinium L-malate]",no degradation
7,"CN1CCC[C@H]1c1cccnc1.O=C(O)c1ccccc1O [monoclinic P21 (S)-nicotinium salicylate, (S)-nicotinium salicylate]",no degradation
8,O=C(O)c1cc(=O)[nH]c(=O)[nH]1 [orotic acid],no orotic acid degradation
9,CN1CCC[C@H]1c1cccnc1.O=C(O)C[C@H](O)C(=O)O [orthorhombic P212121 (S)-nicotinium L-malate],no degradation

# Test: not given
# Conditions: cited from earlier work
row,SMILES,pKa (Strongest Acidic)
1,"O=C(O)c1c(O)cc(O)cc1O [2,4,6-Trihydroxybenzoic Acid]",1.83
2,"O=C(O)c1c(O)cccc1O [2,6-Dihydroxybenzoic Acid]",1.51
3,Nc1cccc(C(=O)O)c1O [3-Aminosalicylic Acid],2.90
4,COc1ccc(C(=O)O)c(O)c1 [4-Methoxysalicylic Acid],3.09
5,"O=C(O)c1cc(Cc2ccc(O)c(C(=O)O)c2)ccc1O [5,5′-Methylenedisalicylic Acid]",2.94
6,COc1ccc(O)c(C(=O)O)c1 [5-Methoxysalicylic acid],2.52
7,NC(C(=O)O)C(=O)O [Aminomalonic Acid],0.45
8,COC(=O)[C@H](Cc1ccccc1)NC(=O)[C@@H](N)CC(=O)O [Aspartame],3.53
9,C[N+](C)(C)CC(=O)O [Betaine],2.26
10,O=C(/C=C/c1ccc(O)c(O)c1)O[C@@H](C(=O)O)[C@@H](O)C(=O)O [Caftaric Acid],2.96
11,C[N+](C)(C)CC(O)CC(=O)[O-] (stereo not shown) [Carnitine],4.20
12,O=C(O)C=Cc1ccccc1 [Cinnamic acid],4.01
13,CC(O)(CC(=O)O)C(=O)O (stereo not shown) [Citramalic Acid],3.35
14,OC[C@@H](O)[C@@H](O)CO [Erythritol],13.04
15,O=C(O)/C=C/C(=O)O [Fumaric Acid],3.55
16,O=C(O)[C@H](O)[C@@H](O)[C@@H](O)[C@H](O)CO [Galactonic Acid],3.39
17,O=C[C@H](O)[C@@H](O)[C@@H](O)[C@H](O)C(=O)O [Galacturonic Acid],3.24
18,O=C(O)/C=C\C(=O)O [Maleic Acid],3.05
19,CC1CCC(C(C)C)C(O)C1 (stereo not shown) [Menthol],19.55
20,COc1cccc(C(=O)O)c1 [Meta-Anisic Acid],3.84
21,COc1ccccc1C(=O)O [Ortho-Anisic Acid],3.73
22,COc1ccc(C(=O)O)cc1 [Para-Anisic Acid],4.37
23,CC(=O)C(=O)O [Pyruvic Acid],2.93
24,C=C1C[C@@]23CC[C@H]4[C@@](C)(CCC[C@@]4(C)C(=O)O)[C@@H]2CC[C@]1(O)C3 [Steviol],4.70
25,O=C(O)CCC(=O)O [Succinic Acid],3.55
26,OC[C@H]1O[C@H](O[C@]2(CCl)O[C@H](CCl)[C@@H](O)[C@@H]2O)[C@H](O)[C@@H](O)[C@H]1Cl [Sucralose],1.91
27,OC[C@H]1O[C@@](CO)(O[C@H]2O[C@H](CO)[C@@H](O)[C@H](O)[C@H]2O)[C@@H](O)[C@@H]1O [Sucrose],11.84
29,O=C(O)C(O)C(=O)O [Tartronic Acid],2.42
30,OC[C@@H](O)[C@H](O)[C@@H](O)CO [Xylitol],12.76

# Test: Aerosolization/Vaporization Analysis (iStick Pico with Sai atomizer, syringe as lung analog)
# Conditions: heating in bucket coil; decarboxylation of the acid coformer
row,SMILES,degradation product formed during vaporization
1,"CN1CCC[C@H]1c1cccnc1.O=C(O)c1ccccc1O [monoclinic P21 (S)-nicotinium salicylate, (S)-nicotinium salicylate]",phenol was likely also formed
